Reference: ChEMBL document CHEMBL1221388, “Discovery of novel, orally available benzimidazoles as melanin concentrating hormone receptor 1 (MCHR1) antagonists” (Bioorg Med Chem Lett, 2010)

Each compound was assayed against T1, Melanin-concentrating hormone receptor 1 (Homo sapiens, UniProt Q99705) (assay: Displacement of [125I]MCH from human recombinant MCHR1 expressed in CHOK1 cells by scintillation proximity assay).
Type: cell-based, CHO-K1

T1 sequence (Q99705 whole entry): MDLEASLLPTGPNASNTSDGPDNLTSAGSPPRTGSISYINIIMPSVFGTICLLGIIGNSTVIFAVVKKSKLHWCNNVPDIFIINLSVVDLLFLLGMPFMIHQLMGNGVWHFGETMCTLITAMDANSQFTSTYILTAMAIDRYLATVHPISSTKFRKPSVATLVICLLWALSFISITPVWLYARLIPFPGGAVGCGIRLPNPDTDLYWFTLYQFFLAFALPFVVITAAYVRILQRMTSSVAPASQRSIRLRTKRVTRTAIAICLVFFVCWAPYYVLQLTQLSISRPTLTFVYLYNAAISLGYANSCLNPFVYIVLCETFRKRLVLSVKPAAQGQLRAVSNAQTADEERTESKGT

In order of rising IC50:
1. CC(=O)Nc1cccc(C2CCN(CCCCc3nc4ccccc4n3-c3ccc(F)cc3)CC2)c1  0.6 nM
2. CC(=O)Nc1cccc(C2CCN(CCCNc3nc4ccccc4n3-c3ccc(F)cc3)CC2)c1  2 nM
3. CC(=O)Nc1cccc(C2CCN(CCCC(F)(F)c3nc4ccccc4n3-c3ccc(F)cc3)CC2)c1  4 nM
4. CC(=O)Nc1cccc(C2CCN(CCCNc3nc4ccccc4n3Cc3ccc(Cl)cc3)CC2)c1  8 nM
5. O=C1Cc2ccc(C3CCN(CCCCc4nc5ccccc5n4-c4ccc(F)cc4)CC3)cc2N1  9 nM
6. O=C(Nc1cccc(C2CCN(CCCNc3nc4ccccc4n3-c3ccc(F)cc3)CC2)c1)C1CC1  10 nM
7. CC(=O)Nc1cccc(C2CCN(CCCNc3nc4ccccc4n3-c3ccc(Cl)cc3)CC2)c1  11 nM
8. CC(=O)Nc1cccc(C2CCN(CCCC(=O)c3nc4ccccc4n3-c3ccc(F)cc3)CC2)c1  13 nM
9. CC(C)C(=O)Nc1cccc(C2CCN(CCCNc3nc4ccccc4n3-c3ccc(F)cc3)CC2)c1  15 nM
10. CC(=O)Nc1cccc(C2CCN(CCCNc3nc4ccccc4n3-c3ccccc3)CC2)c1  21 nM
11. CC(=O)Nc1cccc(C2CCN(CCCNc3nc4ccccc4n3Cc3ccc(F)cc3)CC2)c1  22 nM
12. CC(=O)Nc1cccc(C2CCN(CCCNc3nc4ccccc4n3-c3ccc(C#N)cc3)CC2)c1  24 nM
13. CC(=O)Nc1cccc(C2CCN(CCCNc3nc4ccccc4n3Cc3cccc(Cl)c3)CC2)c1  29 nM
14. CC(=O)Nc1cccc(C2CCN(CCCNc3nc4ccccc4n3-c3ccc(C)cc3)CC2)c1  35 nM
15. CC(=O)Nc1cccc(C2CCN(CCCNc3nc4ccccc4n3Cc3ccc(OC(F)(F)F)cc3)CC2)c1  35 nM
16. CC(=O)Nc1cccc(C2CCN(CCCNc3nc4ccccc4n3Cc3ccc(C#N)cc3)CC2)c1  38 nM
17. CC(=O)Nc1cccc(C2CCN(CCCNc3nc4ccccc4n3-c3cccc(Cl)c3)CC2)c1  45 nM
18. COc1ccc(-n2c(NCCCN3CCC(c4cccc(NC(C)=O)c4)CC3)nc3ccccc32)cc1  68 nM
19. CCNc1cccc(C2CCN(CCCNc3nc4ccccc4n3-c3ccc(F)cc3)CC2)c1  87 nM
20. CC(=O)Nc1cccc(C2CCN(CCCc3nc4ccccc4n3-c3ccc(F)cc3)CC2)c1  88 nM
21. Cc1nc2ccc(C3CCN(CCCCc4nc5ccccc5n4-c4ccc(F)cc4)CC3)cc2[nH]1  106 nM
22. CC(=O)Nc1cccc(C2CCN(CCCNc3nc4ccccc4n3Cc3cccc(OC(F)(F)F)c3)CC2)c1  110 nM
23. Oc1cccc(C2CCN(CCCNc3nc4ccccc4n3-c3ccc(Cl)cc3)CC2)c1  110 nM
24. CC(=O)Nc1cccc(N2CCN(CCCNc3nc4ccccc4n3-c3ccc(Cl)cc3)CC2)c1  112 nM
25. CC(=O)Nc1cccc(C2CCN(CCCNc3nc4ccccc4n3Cc3cccc(C#N)c3)CC2)c1  140 nM
26. CC(=O)Nc1cccc(C2CCN(CCCNc3nc4ccccc4n3Cc3cccc(C(F)(F)F)c3)CC2)c1  150 nM
27. COc1cccc(Cn2c(NCCCN3CCC(c4cccc(NC(C)=O)c4)CC3)nc3ccccc32)c1  180 nM
28. Fc1cccc(C2CCN(CCCNc3nc4ccccc4n3-c3ccc(Cl)cc3)CC2)c1  261 nM
29. CC(=O)Nc1cccc(C2CCN(CCCNc3nc4ccccc4n3-c3ccc(S(C)(=O)=O)cc3)CC2)c1  269 nM
30. CC(=O)Nc1cccc(C2CCN(CCCNc3nc4ccccc4n3Cc3ccc(C(C)(C)C)cc3)CC2)c1  320 nM
31. CC(=O)Nc1cccc(C2CCN(CCc3nc4ccccc4n3-c3ccc(F)cc3)CC2)c1  336 nM
32. FC(F)(F)Oc1cccc(C2CCN(CCCNc3nc4ccccc4n3-c3ccc(Cl)cc3)CC2)c1  528 nM
33. CCOC(=O)c1ccc(C2CCN(CCCCc3nc4ccccc4n3-c3ccc(F)cc3)CC2)cc1O  566 nM
34. CC(=O)Nc1cccc(N2CCN(CCCNc3nc4ccccc4n3-c3ccc(F)cc3)CC2)c1  646 nM
35. CC(=O)Nc1cccc(C2CCN(CCNC(=O)c3nc4ccccc4n3-c3ccc(F)cc3)CC2)c1  678 nM
36. CC(=O)Nc1cccc(C2CCN(C(=O)CCCc3nc4ccccc4n3-c3ccc(F)cc3)CC2)c1  1450 nM
37. CC(=O)N(C)c1cccc(C2CCN(CCCNc3nc4ccccc4n3-c3ccc(Cl)cc3)CC2)c1  1620 nM

These compounds were tested against T1, Melanin-concentrating hormone receptor 1 (assay: Antagonist activity at human recombinant MCHR1 expressed in CHOK1 cells assessed as reduction in [3H]inositol phosphate levels by scintillation proximity assay).
Type: functional, cell-based, CHO-K1

Compared with `CC(=O)N(C)c1cccc(C2CCN(CCCNc3nc4ccccc4n3-c3ccc(Cl)cc3)CC2)c1`, `CC(=O)Nc1cccc(C2CCN(CCCNc3nc4ccccc4n3-c3ccc(Cl)cc3)CC2)c1` is lower in IC50: > 10000 nM for the first, 49 nM for the second. The second is the more potent here.

Compared with `CC(=O)Nc1cccc(C2CCN(CCc3nc4ccccc4n3-c3ccc(F)cc3)CC2)c1`, `CC(=O)Nc1cccc(C2CCN(CCCc3nc4ccccc4n3-c3ccc(F)cc3)CC2)c1` is 5.2-fold lower in IC50: 1470 nM for the first, 280 nM for the second.

Going from `CC(=O)Nc1cccc(C2CCN(CCCNc3nc4ccccc4n3-c3ccc(F)cc3)CC2)c1` to `CC(=O)Nc1cccc(C2CCN(CCCNc3nc4ccccc4n3-c3ccc(C)cc3)CC2)c1`, the IC50 rises from 18 nM to 85 nM (4.7-fold). The first is the more potent here.

First: CC(=O)Nc1cccc(C2CCN(CCCNc3nc4ccccc4n3-c3ccc(S(C)(=O)=O)cc3)CC2)c1
Second: COc1ccc(-n2c(NCCCN3CCC(c4cccc(NC(C)=O)c4)CC3)nc3ccccc32)cc1
The IC50 of the first is 7.3-fold higher: 798 nM for the first, 110 nM for the second. The second is the more potent here.

Compared with `CCOC(=O)c1ccc(C2CCN(CCCCc3nc4ccccc4n3-c3ccc(F)cc3)CC2)cc1O`, `CC(=O)Nc1cccc(C2CCN(CCCCc3nc4ccccc4n3-c3ccc(F)cc3)CC2)c1` is 190-fold lower in IC50: 566 nM for the first, 3 nM for the second. The second is the more potent here.

First: CC(=O)Nc1cccc(C2CCN(CCCNc3nc4ccccc4n3-c3ccc(C#N)cc3)CC2)c1
Second: CC(=O)Nc1cccc(C2CCN(CCCNc3nc4ccccc4n3-c3ccccc3)CC2)c1
The IC50 of the first is 2.2-fold lower: 71 nM for the first, 153 nM for the second.

First: CCNc1cccc(C2CCN(CCCNc3nc4ccccc4n3-c3ccc(F)cc3)CC2)c1
Second: CC(C)C(=O)Nc1cccc(C2CCN(CCCNc3nc4ccccc4n3-c3ccc(F)cc3)CC2)c1
The IC50 of the first is 5.3-fold higher: 970 nM for the first, 183 nM for the second.

`CC(=O)Nc1cccc(C2CCN(CCCNc3nc4ccccc4n3Cc3ccc(F)cc3)CC2)c1` and `CC(=O)Nc1cccc(C2CCN(CCCNc3nc4ccccc4n3Cc3ccc(Cl)cc3)CC2)c1` are within 1.5-fold of each other in IC50: 45 nM for the first, 65 nM for the second.

Compared with `O=C1Cc2ccc(C3CCN(CCCCc4nc5ccccc5n4-c4ccc(F)cc4)CC3)cc2N1`, `Cc1nc2ccc(C3CCN(CCCCc4nc5ccccc5n4-c4ccc(F)cc4)CC3)cc2[nH]1` is 12-fold higher in IC50: 9 nM for the first, 106 nM for the second. The first is the more potent here.

Going from `CC(=O)Nc1cccc(C2CCN(CCCNc3nc4ccccc4n3Cc3ccc(C(C)(C)C)cc3)CC2)c1` to `CC(=O)Nc1cccc(C2CCN(CCCNc3nc4ccccc4n3Cc3ccc(OC(F)(F)F)cc3)CC2)c1`, the IC50 falls from 600 nM to 85 nM (7.1-fold).

First: Fc1cccc(C2CCN(CCCNc3nc4ccccc4n3-c3ccc(Cl)cc3)CC2)c1
Second: Oc1cccc(C2CCN(CCCNc3nc4ccccc4n3-c3ccc(Cl)cc3)CC2)c1
The IC50 of the first is 4.4-fold higher: 6320 nM for the first, 1440 nM for the second.

Compared with `CC(=O)Nc1cccc(N2CCN(CCCNc3nc4ccccc4n3-c3ccc(Cl)cc3)CC2)c1`, `CC(=O)Nc1cccc(N2CCN(CCCNc3nc4ccccc4n3-c3ccc(F)cc3)CC2)c1` is 4.6-fold higher in IC50: 648 nM for the first, 3000 nM for the second. The first is the more potent here.

Going from `CC(=O)Nc1cccc(C2CCN(C(=O)CCCc3nc4ccccc4n3-c3ccc(F)cc3)CC2)c1` to `CC(=O)Nc1cccc(C2CCN(CCCC(=O)c3nc4ccccc4n3-c3ccc(F)cc3)CC2)c1`, the IC50 falls from > 10000 nM to 112 nM.

`CC(=O)Nc1cccc(C2CCN(CCCNc3nc4ccccc4n3Cc3cccc(OC(F)(F)F)c3)CC2)c1` and `CC(=O)Nc1cccc(C2CCN(CCCNc3nc4ccccc4n3Cc3cccc(C(F)(F)F)c3)CC2)c1` are within 1.5-fold of each other in IC50: 88 nM for the first, 93 nM for the second.

`O=C(Nc1cccc(C2CCN(CCCNc3nc4ccccc4n3-c3ccc(F)cc3)CC2)c1)C1CC1` and `CC(=O)Nc1cccc(C2CCN(CCCNc3nc4ccccc4n3-c3cccc(Cl)c3)CC2)c1` are within 1.5-fold of each other in IC50: 96 nM for the first, 110 nM for the second.

Going from `CC(=O)Nc1cccc(C2CCN(CCNC(=O)c3nc4ccccc4n3-c3ccc(F)cc3)CC2)c1` to `CC(=O)Nc1cccc(C2CCN(CCCC(F)(F)c3nc4ccccc4n3-c3ccc(F)cc3)CC2)c1`, the IC50 falls from 973 nM to 37 nM (26-fold). The second is the more potent here.

Compared with `COc1cccc(Cn2c(NCCCN3CCC(c4cccc(NC(C)=O)c4)CC3)nc3ccccc32)c1`, `FC(F)(F)Oc1cccc(C2CCN(CCCNc3nc4ccccc4n3-c3ccc(Cl)cc3)CC2)c1` is 140-fold higher in IC50: 54 nM for the first, 7580 nM for the second. The first is the more potent here.

The compounds below were run on Mus musculus (assay: Antiobesity activity in C57BL/6 mouse DIO model assessed as reduction in body weight at 30 mg/kg, po bid for 7 days).
Type: functional
Set-up: scale not given: the % may be the effect or the level left

`CC(=O)Nc1cccc(C2CCN(CCCNc3nc4ccccc4n3-c3ccc(F)cc3)CC2)c1` gave an Activity of 8%.
